ChEMBL document CHEMBL5365422 (Bioorg Med Chem Lett, 2023)
Values after ≈ are worked out from the molar mass of the structure shown. Active and inactive are the calls of the source. No cut-off for these calls is given here.

Experiments:
[1] = system: Panel NCI-60 (60 carcinoma cell lines); assay: Cytotoxicity against human Panel NCI-60 (60 carcinoma cell lines) cells assessed as reduction in cell viability; type: functional
[2] = Stability of compound in human plasma assessed as drug degradation at 37 degC measured after 90 mins by LC-MS analysis; type: ADME, cell-free; details: read-out: Drug degradation
[3] = biological target: T1, Polyunsaturated fatty acid 5-lipoxygenase (Homo sapiens) (UniProt P09917); assay: Binding affinity to 5-LOX (unknown origin)
T1 sequence (whole entry): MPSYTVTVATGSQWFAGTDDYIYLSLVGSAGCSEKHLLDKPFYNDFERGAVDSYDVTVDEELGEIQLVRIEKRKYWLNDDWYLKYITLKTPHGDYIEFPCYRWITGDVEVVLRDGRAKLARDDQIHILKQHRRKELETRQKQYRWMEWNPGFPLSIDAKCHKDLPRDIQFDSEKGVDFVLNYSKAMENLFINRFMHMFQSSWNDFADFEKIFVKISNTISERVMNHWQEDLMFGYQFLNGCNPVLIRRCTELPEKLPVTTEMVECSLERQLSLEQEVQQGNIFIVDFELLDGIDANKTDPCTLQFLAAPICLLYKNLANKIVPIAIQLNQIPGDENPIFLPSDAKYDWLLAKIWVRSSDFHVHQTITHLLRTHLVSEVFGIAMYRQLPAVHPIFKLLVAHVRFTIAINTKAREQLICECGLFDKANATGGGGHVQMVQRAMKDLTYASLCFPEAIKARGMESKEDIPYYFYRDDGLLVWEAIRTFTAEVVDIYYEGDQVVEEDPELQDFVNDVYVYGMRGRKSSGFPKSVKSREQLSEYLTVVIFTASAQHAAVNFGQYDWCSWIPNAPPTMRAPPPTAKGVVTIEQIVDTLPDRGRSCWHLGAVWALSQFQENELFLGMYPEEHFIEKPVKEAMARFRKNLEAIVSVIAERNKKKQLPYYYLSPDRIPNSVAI

Albumin = Albumin (Homo sapiens, UniProt P02768); assay: Binding affinity to human serum albumin in phosphate buffer at pH 7.4 incubated at 298 K
[4] = biological target: T2, Polyunsaturated fatty acid 5-lipoxygenase (Homo sapiens, UniProt P09917); assay: Inhibition of 5-LOX (unknown orgin) using arachidonic acid as substrate incubated for 10 mins by colorimetric assay
T2 sequence (P09917 whole entry): T1 sequence (whole entry)

[5] = Solubility of the compound in PBS buffer by UV spectrum based solubility assay; type: physicochemical
[6] = biological target: T1, Polyunsaturated fatty acid 5-lipoxygenase (Homo sapiens); assay: Competitive inhibition of 5-LOX (unknown origin) using arachidonic acid as substrate by Michaelis-Menten equation based kinetic analysis
[7] = Half life in human liver microsome by LC-MS/MS analysis; type: ADME; details: liver microsomes

Chain of Albumin (P02768 whole entry): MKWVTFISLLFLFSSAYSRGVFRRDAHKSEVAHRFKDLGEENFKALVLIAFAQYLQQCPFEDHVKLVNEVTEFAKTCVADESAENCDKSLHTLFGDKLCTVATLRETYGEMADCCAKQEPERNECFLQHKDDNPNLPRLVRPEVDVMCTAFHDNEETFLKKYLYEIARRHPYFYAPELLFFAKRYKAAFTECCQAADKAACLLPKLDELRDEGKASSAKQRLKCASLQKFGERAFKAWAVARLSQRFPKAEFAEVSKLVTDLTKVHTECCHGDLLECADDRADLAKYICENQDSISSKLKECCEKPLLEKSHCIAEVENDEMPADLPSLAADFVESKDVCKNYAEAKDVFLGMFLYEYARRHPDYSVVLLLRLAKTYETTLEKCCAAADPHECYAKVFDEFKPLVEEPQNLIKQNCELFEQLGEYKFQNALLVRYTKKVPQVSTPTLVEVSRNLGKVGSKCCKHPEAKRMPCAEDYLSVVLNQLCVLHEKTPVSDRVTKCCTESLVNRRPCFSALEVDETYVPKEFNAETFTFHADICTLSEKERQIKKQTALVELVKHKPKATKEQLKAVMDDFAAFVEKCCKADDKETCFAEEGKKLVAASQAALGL

SMILES	LC50 (concentration killing 50% of cells) [1] [nM]	metabolised at 1.5 h [2] [%]	K [3]	K (Albumin)	IC50 [4] [nM]	solubility [5] [µM]	inhibition [6]	half-life [7] [h]
CCOC(=O)Cn1cccc1CC1c2ccccc2N(c2c(Cl)cccc2Cl)C1O (stereo not drawn)	> 100000	4	1.7 10^8/M	1.4 10^4/M	1310			
Oc1c(Cc2cn(Cc3ccccc3)c3ccccc23)c2ccccc2n1-c1c(Cl)cccc1Cl	> 100000	4	0.8 10^8/M	1.4 10^4/M	100			
COc1cc(CC2C(=O)N(c3c(Cl)cccc3Cl)c3ccccc32)cc(OC)c1OC (stereo not drawn)	> 100000	4	0.9 10^8/M	6.9 10^4/M	260			
C#CCn1cccc1CC1c2ccccc2N(c2c(Cl)cccc2Cl)C1O (stereo not drawn)	> 100000	4	0.9 10^8/M	4.1 10^4/M	250			
O=C(O)Cn1cc(Cc2c(O)n(-c3c(Cl)cccc3Cl)c3ccccc23)c2ccccc21	> 100000	4	2.5 10^8/M	5.2 10^4/M	1230			
C=CCn1cccc1CC1C(=O)N(c2c(Cl)cccc2Cl)c2ccccc21 (stereo not drawn)	> 100000	4	1.4 10^8/M	1.7 10^4/M	1770			
C=CCn1cc(Cc2c(O)n(-c3c(Cl)cccc3Cl)c3ccccc23)c2ccccc21	> 100000	4	1.8 10^8/M	7.6 10^2/M	70			
O=C1C(Cc2c[nH]c3ccccc23)c2ccccc2N1c1c(Cl)cccc1Cl (stereo not drawn)	> 100000	4	4.2 10^8/M	1.1 10^3/M	310			
O=C(O)Cn1cccc1Cc1c(O)n(-c2c(Cl)cccc2Cl)c2ccccc12	> 100000	4	4.9 10^8/M	1.4 10^4/M	430			
C#CCn1cc(Cc2c(O)n(-c3c(Cl)cccc3Cl)c3ccccc23)c2ccccc21	> 100000	4	3.1 10^8/M	1.1 10^4/M	> 10000			
O=C1C(Cc2ccc[nH]2)c2ccccc2N1c1c(Cl)cccc1Cl (stereo not drawn)	> 100000	4	1.1 10^8/M	3.8 10^4/M	30	26 (≈ 9.29 µg/mL)	Active	1.5
O=C1C(Cc2cccn2Cc2ccccc2)c2ccccc2N1c1c(Cl)cccc1Cl (stereo not drawn)	> 100000	4	2.4 10^8/M	1.2 10^4/M	490			
CCOC(=O)Cn1cc(Cc2c(O)n(-c3c(Cl)cccc3Cl)c3ccccc23)c2ccccc21	> 100000	4	4.5 10^8/M	2.7 10^3/M	630			
